Assay results published in US20110039763A1, “TARGETED ANTIMICROBIAL MOIETIES” (C3 JIAN, INC., priority 2009, published 2011).
“Also recorded” adds a separate entry of the source.

Tested on: microorganisms
Assay: Targeting peptide binding to target microorganisms (Tables 3, 10, 12)
Settings: microorganism(s) the targeting peptide binds, preferably 1x PBS
[1] = binding in aqueous buffers that varied with peptide solubility
[2] = binding in aqueous buffers varied with peptide solubility

| Substance | Target(s) [1] | Target(s) [2] |
| --- | --- | --- |
| PF-050 (SYYLKRREEKGK; Peptide with targeting and/or antimicrobial activity) | S. epidermidis; also recorded: M. luteus; also recorded: E. coli; also recorded: C. jeikeium |  |
| PF-054 (VSISRFIGGGHVFNGNNKRNL; Peptide with targeting and/or antimicrobial activity) | S. epidermidis; also recorded: E. coli |  |
| PF-055 (GHVFNGNNKRNL; Peptide with targeting and/or antimicrobial activity) | S. mutans |  |
| PF-060 (HSSHL; Peptide with targeting and/or antimicrobial activity) | E. coli; also recorded: C. albicans; also recorded: C. jeikeium |  |
| PF-062 (MKKKRINNDILGRMIYSSSIDKRNLYNLKYYE; Peptide with targeting and/or antimicrobial activity) | S. epidermidis and M. luteus and E. coli and P. aeruginosa and MRSA and S. pneumoniae and E. faecalis and C. jeikeium |  |
| PF-097 (QPTQGEQGTRPRRPTPMRGLLI; Peptide with targeting and/or antimicrobial activity) |  | C. jeikeium |
| PF-101 (DPVPERQEQACACHRTAKPGK; Peptide with targeting and/or antimicrobial activity) |  | S. mutans |
| PF-104 (ERTAVNDLWI; Peptide with targeting and/or antimicrobial activity) |  | MRSA and C. jeikeium |
| PF-130 (LQRSDEESMPRRHEKYS; Peptide with targeting and/or antimicrobial activity) |  | E. faecalis; also recorded: C. jeikeium; also recorded: C. jejuni |
| PF-131 (RRAAARTKGNRR; Peptide with targeting and/or antimicrobial activity) |  | S. epidermidis and E. coli and MRSA and C. jeikeium |
| PF-132 (RPGDGAAEQGRSR; Peptide with targeting and/or antimicrobial activity) |  | S. epidermidis; also recorded: C. jeikeium |
| PF-134 (GKAMKRQDCSAL; Peptide with targeting and/or antimicrobial activity) |  | S. epidermidis; also recorded: C. jeikeium |
| PF-138 (AVHHSLLFR; Peptide with targeting and/or antimicrobial activity) |  | S. epidermidis and M. luteus and P. mirabilis and E. coli and C. albicans and MRSA and C. jeikeium and C. jejuni |
| PF-141 (VVRRFQGM; Peptide with targeting and/or antimicrobial activity) |  | S. epidermidis and M. luteus and C. albicans and MRSA and C. jeikeium |
| PF-142 (GIDRGCQAAR; Peptide with targeting and/or antimicrobial activity) |  | S. mutans |
| PF-146 (GCGKRRIITKSASRDTR; Peptide with targeting and/or antimicrobial activity) |  | S. epidermidis and M. luteus and P. aeruginosa and C. albicans and MRSA and C. jeikeium |
| PF-147 (RRPRRRRSGHGQSASAA; Peptide with targeting and/or antimicrobial activity) |  | S. epidermidis and M. luteus and MRSA |
| PF-150 (EIQAKGTG; Peptide with targeting and/or antimicrobial activity) |  | S. epidermidis and MRSA |
| PF-151 (EEYPARVPLSGEDVTEARRH; Peptide with targeting and/or antimicrobial activity) |  | S. epidermidis and MRSA and E. faecalis and C. jeikeium |
| PF-152 (VGYFIWKDSHSRKG; Peptide with targeting and/or antimicrobial activity) |  | S. epidermidis and C. albicans and MRSA and E. faecalis and C. jeikeium |
| PF-154 (GIKKSKHPSTDDYVVKTTIDSL; Peptide with targeting and/or antimicrobial activity) |  | S. mutans |
| PF-155 (GRYGDDSKERQGRAQ; Peptide with targeting and/or antimicrobial activity) |  | C. jeikeium |
| PF-158 (VRLESRPADLPE; Peptide with targeting and/or antimicrobial activity) |  | S. epidermidis |
| PF-159 (TMAFVEKAQLRVPVGDDLPV; Peptide with targeting and/or antimicrobial activity) |  | S. epidermidis |
| PF-160 (SFHASLTKNEKPIKSTG; Peptide with targeting and/or antimicrobial activity) |  | S. epidermidis |

| Substance | Target(s) [1] | Target(s) [2] |
| --- | --- | --- |
| PF-161 (RGRALASTATTRPARRRR; Peptide with targeting and/or antimicrobial activity) |  | S. epidermidis; also recorded: M. luteus; also recorded: E. coli; also recorded: C. jejuni |
| PF-162 (GIRRLHSVENLNREISHRMAGLR; Peptide with targeting and/or antimicrobial activity) |  | S. epidermidis and MRSA |
| PF-163 (TSWLRAAERQEIGEPTKTFGEKTTSL; Peptide with targeting and/or antimicrobial activity) |  | S. epidermidis |
| PF-165 (GPVSVVASLRRGTTVQRHSQNNHNKGKP; Peptide with targeting and/or antimicrobial activity) |  | MRSA and C. jejuni |
| PF-166 (SKAVSRKRSI; Peptide with targeting and/or antimicrobial activity) |  | E. coli; also recorded: C. jeikeium |
| PF-169 (APGSAADSPRSRADD; Peptide with targeting and/or antimicrobial activity) |  | S. epidermidis; also recorded: E. coli; also recorded: C. albicans; also recorded: E. faecalis; also recorded: C. jeikeium |
| PF-172 (LTGVRRPWRAPWAGTSGWALR; Peptide with targeting and/or antimicrobial activity) |  | S. epidermidis and M. luteus and E. coli and P. aeruginosa and MRSA and E. faecalis and C. jejuni |
| PF-174 (RGGDSPARRRPGLAGPGGPG; Peptide with targeting and/or antimicrobial activity) |  | S. epidermidis; also recorded: P. aeruginosa; also recorded: C. jeikeium |
| PF-177 (VTSEPGIAHDIRLLPRAAAFR; Peptide with targeting and/or antimicrobial activity) |  | M. luteus and MRSA and E. faecalis and C. jeikeium |
| PF-181 (GIAPRRNEWGAVGGR; Peptide with targeting and/or antimicrobial activity) |  | S. epidermidis and M. luteus and E. coli and MRSA and E. faecalis and C. jeikeium |
| PF-182 (LPATRDKTRVPASVAGAP; Peptide with targeting and/or antimicrobial activity) |  | S. epidermidis; also recorded: M. luteus; also recorded: E. coli; also recorded: E. faecalis; also recorded: C. jeikeium |
| PF-183 (KPGISVENRQ; Peptide with targeting and/or antimicrobial activity) |  | S. epidermidis and M. luteus and E. coli and C. albicans and MRSA and E. faecalis and C. jeikeium |
| PF-184 (LIADRHIRA; Peptide with targeting and/or antimicrobial activity) |  | S. epidermidis and M. luteus and E. coli and P. aeruginosa and C. albicans and MRSA and C. jeikeium |
| PF-185 (RPAQARQGPGGLIADRHIRA; Peptide with targeting and/or antimicrobial activity) |  | E. coli; also recorded: P. aeruginosa |
| PF-187 (EIQKIAKGVSGQVYGPSRQITISKKR; Peptide with targeting and/or antimicrobial activity) |  | S. epidermidis and M. luteus and E. coli and MRSA |
| PF-189 (GNLTRSREAARATQ; Peptide with targeting and/or antimicrobial activity) |  | S. epidermidis and M. luteus and C. albicans and MRSA and E. faecalis and C. jejuni |
| PF-193 (PPHCPPGHAKKGWC; Peptide with targeting and/or antimicrobial activity) |  | S. epidermidis and M. luteus and E. coli and MRSA and E. faecalis and C. jejuni |
| PF-194 (MKGNKLATAHEQPVKNSAPPL; Peptide with targeting and/or antimicrobial activity) |  | C. jeikeium |
| PF-195 (EMAEGSADDRLRKTPRDC; Peptide with targeting and/or antimicrobial activity) |  | S. epidermidis; also recorded: M. luteus; also recorded: E. faecalis; also recorded: C. jeikeium |
| PF-197 (CNALLRRGHPPSAL; Peptide with targeting and/or antimicrobial activity) |  | S. epidermidis; also recorded: M. luteus; also recorded: C. albicans; also recorded: E. faecalis; also recorded: C. jejuni |
| PF-200 (GIELKSLIMAQIERWRQA; Peptide with targeting and/or antimicrobial activity) |  | S. epidermidis and M. luteus and MRSA and E. faecalis and C. jeikeium |
| PF-201 (GCRPASLSDADPDGR; Peptide with targeting and/or antimicrobial activity) |  | S. epidermidis; also recorded: M. luteus; also recorded: E. coli; also recorded: C. albicans; also recorded: E. faecalis; also recorded: C. jeikeium; also recorded: C. jejuni |
| PF-202 (ALNRASLRLALGE; Peptide with targeting and/or antimicrobial activity) |  | S. epidermidis and M. luteus and E. coli and MRSA and E. faecalis and C. jeikeium and C. jejuni |
| PF-206 (KLRSASKKSLQEKSCGIMPEKPAG; Peptide with targeting and/or antimicrobial activity) |  | M. luteus; also recorded: C. albicans; also recorded: C. jeikeium; also recorded: C. jejuni |
